According to patent publication US9051575B2, “Alga in which production of photosynthetic products is improved, and use for said alga” (Japan Science and Technology Agency, priority 2010, dated 2015):
Entries after “also recorded” stand apart in the source; their conditions may differ.

Key:
Format in all cases: cell-based, Chlamydomonas reinhardtii
[1] = tested on: GSH1 overexpressing strain; assay: Flow cytometry of particle densities in the culture (TAP medium, semi-heterotrophic); conditions: addition of 8 mM BSO, 45 μE/m^2/sec, number of particles in 1 mL culture solution divided by the cube of 10
Experimental: (§1) The GSH1 overexpressing strain produced in Example 1 was cultured under a semi-heterotrophic condition with the use of tris-acetate-phosphate (TAP) medium having pH7 (see Proc. Natl. Acad. Sci. USA, 54, 1665-1669.), and a growth capacity and a starch production capacity of the GSH1 overexpressing strain were evaluated. A CC503 strain (hereinafter referred to as “parent strain (wild-type strain)”) which is a wild-type Chlamydomonas strain was used as a control.
(§2) Flow cytometry was carried out for more detailed analysis of the states of the GSH1 overexpressing strain of Sample 4 and the parent strain (wild-type strain) of Sample 8. Specifically, the cells of Samples 4 and 8 were irradiated with excitation light of 488 nm, and fluorescence intensity in the vicinity of 600 nm was measured. The fluorescence in the vicinity of 600 nm corresponds to chlorophyll fluorescence. Along with the chlorophyll fluorescence, fluorescent particles (produced by Beckman Coulter Inc., product name: Flow count) were used as an internal control for measuring a cell density. In this way, fluorescence in the range from 525 nm to 700 nm emitted by the excitation light of 488 nm was measured. Further, forward-scattered light and lateral-scattered light were measured so as to measure cell (particle) size and cell (particle) internal complexity.
(§3) Note that the number of cells (particles) shown in Tables 3 and 4, which is expressed by a value obtained by dividing the number of particles contained in 1 mL of the culture solution by the cube of 10, was found on the basis of the value of the internal control.

[2] = tested on: parent strain (wild-type strain) CC503; assay: as above; conditions: addition of 8 mM BSO, 45 μE/m^2/sec, number of particles in 1 mL culture solution divided by the cube of 10
Experimental: as §1, §2, §3

[3] = tested on: GSH1 overexpressing strain; assay: Starch production capacity / discharge of starch grains to outside of cells (clouding of culture solution, iodostarch reaction); conditions: BSO added to TAP medium, final concentration 8 mM
Experimental: as §1
L-Buthionine-sulfoximine (abbreviated as BSO (produced by Sigma-Aldrich Corporation, Model No. B2515) added to TAP medium in Samples 2 and 6 is an inhibitor for GSH synthesis.
(a) of FIG. 1 is a graph showing growth capacities of the respective GSH1 overexpressing strains, and (b) of FIG. 1 is a view showing states of respective culture solutions 309 hours after start of culturing. (a) of FIG. 2 is a graph showing growth capacities of respective parent strains (wild-type strains), and (b) of FIG. 2 is a view showing states of respective culture solutions 215 hours after start of culturing. […] The optical density represented by the vertical axis was measured by a device (manufactured by TAITEC CORPORATION, ODSensor-S/ODBox-A) for measuring an OD value on the basis of a transmission amount of infrared rays (950 nm). […]

SMILES: CCCCS(=N)(=O)CCC(N)C(=O)O [BSO, L-Buthionine-sulfoximine]
- density of particles which did not emit chlorophyll-derived fluorescence as a result of irradiation of excitation light (488 nm) (starch grains) [1]: 602
- density of particles which emitted chlorophyll-derived fluorescence as a result of irradiation of excitation light (488 nm) [1]: 4,228
- density of particles which did not emit chlorophyll-derived fluorescence as a result of irradiation of excitation light (488 nm) (starch grains) [2]: 27
- density of particles which emitted chlorophyll-derived fluorescence as a result of irradiation of excitation light (488 nm) [2]: 19,633
- discharge of starch to an outside of the cells [3]: starch was not discharged to an outside of the cells; also recorded: starch was not discharged into an outside of the cells
